Measured values as given in patent US20030068289A1, “Skin treatment” (Unilever Home & Personal Care USA, Division of Conopco, Inc., priority 2001, published 2003).

How the values were obtained:
scalp stratum corneum = system: scalp stratum corneum
Description: (§1) Panellists consisting of males and females were used. Their scalps were assessed to confirm they were suffering from dandruff. The scalps were divided into two, from the centre of the forehead to the nape of the neck. Four sites of similar scalp condition, two on each side of the head, were identified.
(§2) Panellists were assessed for scalp condition then suitable subjects given a placebo shampoo (ie. non anti-dandruff) to use for approximately 5 weeks. They were then asked to return, having not washed their hair or applied products to it for 48 hours. They were re-assessed then tape stripped at one site on each side o: the head ([…]). They then returned to be salon washed, by salon operators, 3 times their week with ½ of each head washed in the placebo and the other ½ in a shampoo containing 1% ZnPTO. After approximately 4 weeks, they were assessed and tape stripped again an adjacent sites to the first two.
Samples were collected by parting the hair and lightly swabbing with an alcohol swab to remove excess sebum. A total of eight sequential tapestrips were taken from each site. These were stored frozen until required for analysis.
The corneocytes were removed from the tapes by sonicating in methanol and the free lipid was extracted from them in a chloroform/methanol mixture, which was then dried under nitrogen. The residue was reconstituted in chloroform arid the lipid species separated on amino-propyl bonded silica gel columns.
The lipids were then separated and quantified using HPTLC. The lipids analysed were total fatty acids, cholesterol, triglycerides and ceramides. The ceramides were separated into the individual ceramides that are normally seen. The covalently bound lipids were not analysed here. The protein content of the samples were measured and the lipid levels expressed as ng lipid per μg protein. The individual ceramides were also expressed as relative % of total ceramides.

dandruff = settings: 7 subjects; also decreased for placebo
Description: as §1, §2

[1] = after vs before, significant only after the ZnPTO treatment

zinc pyrithione [ZnPTO]
Relative % lipids in scalp stratum corneum: Cholesterol (scalp stratum corneum; After ZnPTO, approx 4 weeks, spread 1.4 in row below, Before ZnPTO 11.6 ± 4.5): 8.8% | Relative % lipids in scalp stratum corneum: Ceramides (scalp stratum corneum; After ZnPTO, approx 4 weeks, spread 3.8 in row below, Before ZnPTO 31.0 ± 8.1): 16.4% | Relative % lipids in scalp stratum corneum: Fatty Acids (scalp stratum corneum; After ZnPTO, approx 4 weeks, spread 16.6 in row below, Before ZnPTO 36.0 ± 12.5): 31.8% | Relative % lipids in scalp stratum corneum: Triglycerides (scalp stratum corneum; After ZnPTO, approx 4 weeks, spread 19.2 in row below, Before ZnPTO 21.4 ± 4.8): 43.0% | Mass level of lipid: Fatty Acids (scalp stratum corneum; After ZnPTO: shampoo containing 1% ZnPTO, 3 washes per week, approx 4 weeks, half-head, spread 748.6 in row below, Before ZnPTO 364.9 ± 231.9): 1518.1 ng lipid per μg protein | Mass level of lipid: Cholesterol (scalp stratum corneum; After ZnPTO: shampoo containing 1% ZnPTO, approx 4 weeks, spread 221.8 in row below, Before ZnPTO 108.9 ± 44.3): 478.3 ng lipid per μg protein | Mass level of lipid: Ceramides (scalp stratum corneum; After ZnPTO: shampoo containing 1% ZnPTO, approx 4 weeks, spread 243.9 in row below, Before ZnPTO 284.3 ± 62.4): 841.5 ng lipid per μg protein | Mass level of lipid: Triglycerides (scalp stratum corneum; After ZnPTO: shampoo containing 1% ZnPTO, approx 4 weeks, spread 1911.2 in row below, Before ZnPTO 208.5 ± 77.1): 2539.7 ng lipid per μg protein | Mass level of lipid: Total Lipid (scalp stratum corneum; After ZnPTO: shampoo containing 1% ZnPTO, approx 4 weeks, spread 2056.0 in row below, Before ZnPTO 966.6 ± 282.5): 5377.6 ng lipid per μg protein | Ceramide 6i as % of total ceramides (scalp stratum corneum; After ZnPTO, spread 2.0 in row below, Before ZnPTO 9.2 ± 1.1): 8.0% | Ceramide 6ii as % of total ceramides (scalp stratum corneum; After ZnPTO, spread 2.1 in row below, Before ZnPTO 13.8 ± 2.1): 8.0% | Ceramide 3a as % of total ceramides (scalp stratum corneum; After ZnPTO, spread 2.8 in row below, Before ZnPTO 12.4 ± 1.7): 19.2% | Ceramide 3 as % of total ceramides (scalp stratum corneum; After ZnPTO, spread 4.0 in row below, Before ZnPTO 11.8 ± 3.9): 5.9% | Ceramide 1 as % of total ceramides (scalp stratum corneum; After ZnPTO, spread 5.3 in row below, Before ZnPTO 11.3 ± 4.1): 14.6% | Ceramide 2 as % of total ceramides (scalp stratum corneum; After ZnPTO, spread 5.4 in row below, Before ZnPTO 19.4 ± 4.5): 22.3% | Ceramide 4/5 as % of total ceramides (scalp stratum corneum; After ZnPTO, spread 5.9 in row below, Before ZnPTO 22.2 ± 3.0): 22.1% | Relative composition of the samples after treatment, placebo vs ZnPTO (scalp stratum corneum; after treatment): no significant differences | All the lipids measured, mass levels after ZnPTO treatment compared with before treatment (scalp stratum corneum; after vs before treatment): significantly increased | Change in relative % cholesterol with treatment (scalp stratum corneum; after vs before treatment): do not change | Change in relative % fatty acid with treatment (scalp stratum corneum; after vs before treatment): do not change | Change in relative % ceramide after treatment (scalp stratum corneum; after vs before treatment, also after placebo): significantly decreases | Change in % triglyceride after treatment (scalp stratum corneum; after vs before treatment, significant for ZnPTO): increase in % triglyceride, which is significant for ZnPTO | Change in relative % ceramide 6ii after treatment (scalp stratum corneum; after vs before, after both treatments): statistically significant decrease | Change in relative % ceramide 3a after treatment (scalp stratum corneum; [1]): increase in ceramide 3a | Change in relative % ceramide 3 after treatment (scalp stratum corneum; [1]): decrease in ceramide 3 | Level of ceramide, side treated with ZnPTO vs side treated with placebo (scalp stratum corneum; sites sampled after treatment): significantly higher | Level of cholesterol, side treated with ZnPTO vs side treated with placebo (scalp stratum corneum; sites sampled after treatment): significantly higher | Mean dandruff scores after treatment compared with before treatment (dandruff): decreased
